Drawing on patent US12011444B2, “N-substituted indole derivatives as PGE2 receptor modulators” (Idorsia Pharmaceuticals Ltd, priority 2015, dated 2024), this text covers IC50 for 26 compounds.

The target of assay [1] is PTRGER4 (EP4) (Homo sapiens (Human), UniProt P35408). Put plainly: hEP4 b-arrestin assay (PathHunter HEK 293 PTGER4 b-arrestin cells). The format is cell-based. To be noted: hEP4 b-arrestin assay (values without asterisk). In a few lines:
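Antagonist mode: compound is given 15 min at 37 °C, then 20 nM (final) PGE2 for 120 min, in HEK293 cells stably expressing EP4 fused to ProLink and β-arrestin 2 fused to EA. Recruitment read as β-gal luminescence after 1 h reagent at room temperature, as percent of DMSO control.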

Assay [2] has as its target PTGER2 (EP2) (Homo sapiens (Human), UniProt P43116). Put plainly: hEP2 b-arrestin assay (PathHunter HEK 293 PTGER2 b-arrestin cells). The conditions noted are these: hEP2 b-arrestin assay (values without asterisk). It is filed as cell-based. Put shortly:
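Readout is β-galactosidase complementation luminescence, expressed as percent of DMSO control (duplicates). PathHunter HEK293 EP2/β-arrestin 2 cells, grown 24 h, received compound for 15 min at 37 °C before a 120 min challenge with PGE2 at 5 μM final, followed by 1 h detection at room temperature.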

Structures are written as SMILES.

PTRGER4 (EP4), sequence (P35408 whole entry, looked up, the tested form may be a part): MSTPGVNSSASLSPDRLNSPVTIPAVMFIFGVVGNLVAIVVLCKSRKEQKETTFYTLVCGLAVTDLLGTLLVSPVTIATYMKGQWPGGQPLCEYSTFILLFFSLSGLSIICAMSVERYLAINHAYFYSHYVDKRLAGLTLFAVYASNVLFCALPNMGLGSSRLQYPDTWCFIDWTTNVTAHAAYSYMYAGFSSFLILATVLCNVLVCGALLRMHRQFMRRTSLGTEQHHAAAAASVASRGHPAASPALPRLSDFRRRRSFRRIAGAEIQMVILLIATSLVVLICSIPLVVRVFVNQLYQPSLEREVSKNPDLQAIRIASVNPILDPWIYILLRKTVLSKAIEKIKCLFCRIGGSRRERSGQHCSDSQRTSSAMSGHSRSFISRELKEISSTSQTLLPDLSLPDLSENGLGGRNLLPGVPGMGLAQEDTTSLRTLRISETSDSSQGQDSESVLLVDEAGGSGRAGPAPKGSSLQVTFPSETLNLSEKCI
PTGER2 (EP2), sequence (P43116 whole entry): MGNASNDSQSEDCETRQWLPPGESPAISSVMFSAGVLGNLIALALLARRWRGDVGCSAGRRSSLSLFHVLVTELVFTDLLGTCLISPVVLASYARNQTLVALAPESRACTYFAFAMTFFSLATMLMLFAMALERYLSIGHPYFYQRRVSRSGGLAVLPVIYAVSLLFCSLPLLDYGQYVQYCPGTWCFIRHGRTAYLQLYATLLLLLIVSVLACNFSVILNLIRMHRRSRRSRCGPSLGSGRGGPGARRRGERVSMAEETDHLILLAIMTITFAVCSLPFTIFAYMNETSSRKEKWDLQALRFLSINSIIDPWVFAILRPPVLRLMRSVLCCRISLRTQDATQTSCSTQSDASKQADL

Broadly, the IC50 is the concentration needed to halve the response being measured. A high value points to weaker potency in that assay. For the compound `CNc1cc(-c2cc(NCCn3c(C#N)cc4c(OC)ccc(F)c43)ncn2)ccc1C(=O)O` [Example 1010, 4-{6-[2-(2-Cyano-7-fluoro-4-methoxy-indol-1-yl)-ethylamino]-pyrimidin-4-yl}-2-methylamino-benzoic acid], the IC50 in assay [1] is 7 nM; in assay [2], 3 nM.
For `COc1ccc(F)c2c1cc(C#N)n2CCNc1cc(-c2cccc(CCC(=O)O)c2)ncn1` [Example 1011, 3-(3-{6-[2-(2-Cyano-7-fluoro-4-methoxy-indol-1-yl)-ethylamino]-pyrimidin-4-yl}-phenyl)-propionic acid], in that order: 228 nM and 120 nM.
In the case of `CNc1cc(-c2cc(NCCn3c(C)cc4c(C)c(F)cc(F)c43)ncn2)ccc1C(=O)O` [Example 1012, 4-{6-[2-(5,7-Difluoro-2,4-dimethyl-indol-1-yl)-ethylamino]-pyrimidin-4-yl}-2-methylamino-benzoic acid], the IC50 in assay [1] came to 37 nM; in assay [2] it was 5 nM.
As for `COc1ccc(F)c2c1cc(C)n2CCNc1cc(-c2cc(OC(C)C)c(CCC(=O)O)s2)ncn1` [Example 1013, 3-(5-{6-[2-(7-Fluoro-4-methoxy-2-methyl-indol-1-yl)-ethylamino]-pyrimidin-4-yl}-3-isopropoxy-thiophen-2-yl)-propionic acid], the IC50 in assay [1] worked out at 17 nM; in assay [2] it was 14 nM.
With `CCOc1cc(-c2cc(NCCn3c(C)cc4c(OC)ccc(F)c43)ncn2)[nH]c1C(=O)O` [Example 1014, 3-Ethoxy-5-{6-[2-(7-fluoro-4-methoxy-2-methyl-indol-1-yl)-ethylamino]-pyrimidin-4-yl}-1H-pyrrole-2-carboxylic acid], the IC50 came out at 351 nM in assay [1] and 7 nM in assay [2].
`CCOc1cc(-c2cc(NCCn3c(C)cc4c(OC)ccc(F)c43)ncn2)sc1CCC(=O)O` [Example 1015, 3-(3-Ethoxy-5-{6-[2-(7-fluoro-4-methoxy-2-methyl-indol-1-yl)-ethylamino]-pyrimidin-4-yl}-thiophen-2-yl)-propionic acid]: the 50% inhibitory concentration (IC50) in assay [1] amounted to 18 nM; in assay [2], 15 nM.
Turning to `CCOc1cc(-c2cc(NCCn3c(C)cc4c(OC)ccc(F)c43)ncn2)sc1/C=C/C(=O)O` [Example 1016, (E)-3-(3-Ethoxy-5-{6-[2-(7-fluoro-4-methoxy-2-methyl-indol-1-yl)-ethylamino]-pyrimidin-4-yl}-thiophen-2-yl)-acrylic acid], the IC50 in assay [1] and in assay [2] was 5 nM each time.
Regarding `CNc1cc(-c2cc(NCCn3c(C)cc4c(OC)cc(F)cc43)ncn2)ccc1C(=O)O` [Example 1017, 4-{6-[2-(6-Fluoro-4-methoxy-2-methyl-indol-1-yl)-ethylamino]-pyrimidin-4-yl}-2-methylamino-benzoic acid], the IC50 came to 31 nM in assay [1] and 7 nM in assay [2].
Regarding `COc1ccc(F)c2c1cc(C#N)n2CCNc1cc(-c2ccc(C(O)(O)C(F)(F)F)cc2)ncn1` [Example 1018, 7-Fluoro-4-methoxy-1-(2-{6-[4-(2,2,2-trifluoro-1,1-dihydroxy-ethyl)-phenyl]-pyrimidin-4-ylamino}-ethyl)-1H-indole-2-carbonitrile], the IC50 stood at 69 nM in assay [1] and 94 nM in assay [2].
As for `COc1ccc(F)c2c1cc(C#N)n2CCNc1cc(-c2ccc(CCC(=O)O)cc2)ncn1` [Example 1019, 3-(4-{6-[2-(2-Cyano-7-fluoro-4-methoxy-indol-1-yl)-ethylamino]-pyrimidin-4-yl}-phenyl)-propionic acid], the IC50 in assay [1] worked out at 167 nM; in assay [2], 485 nM.
For `N#Cc1cc2c(Cl)cccc2n1CCNc1cc(-c2cc(Cl)c(C(=O)O)s2)ncn1` [Example 1020, 3-Chloro-5-{6-[2-(4-chloro-2-cyano-indol-1-yl)-ethylamino]-pyrimidin-4-yl}-thiophene-2-carboxylic acid], in that order: 29 nM and 2 nM.
On to `CCOc1cc(-c2cc(NCCn3c(C)cc4c(OC)ccc(F)c43)ncn2)sc1C(=O)NS(C)(=O)=O` [Example 1022, N-(3-Ethoxy-5-{6-[2-(7-fluoro-4-methoxy-2-methyl-indol-1-yl)-ethylamino]-pyrimidin-4-yl}-thiophene-2-carbonyl)-methanesulfonamide], for which the IC50 in assay [1] was 18 nM; in assay [2] it was 4 nM.
For `CCOc1cc(-c2cc(NCCn3c(C#N)cc4c(OC)ccc(F)c43)ncn2)sc1C(=O)NC` [Example 1023, 5-{6-[2-(2-Cyano-7-fluoro-4-methoxy-indol-1-yl)-ethylamino]-pyrimidin-4-yl}-3-ethoxy-thiophene-2-carboxylic acid methylamide], the IC50 is 1 nM in assay [1] and 8 nM in assay [2].
As for `CCNC(=O)c1sc(-c2cc(NCCn3c(C#N)cc4c(OC)ccc(F)c43)ncn2)cc1OCC` [Example 1024, 5-{6-[2-(2-Cyano-7-fluoro-4-methoxy-indol-1-yl)-ethylamino]-pyrimidin-4-yl}-3-ethoxy-thiophene-2-carboxylic acid ethylamide], the results for the IC50 in assay [1] and in assay [2] were 2 nM and 14 nM, respectively.
With `CCOc1cc(-c2cc(NCCn3c(C#N)cc4c(OC)ccc(F)c43)ncn2)sc1C(=O)N(C)C` [Example 1025, 5-{6-[2-(2-Cyano-7-fluoro-4-methoxy-indol-1-yl)-ethylamino]-pyrimidin-4-yl}-3-ethoxy-thiophene-2-carboxylic acid dimethylamide], the values for the IC50 in assay [1] and in assay [2] were 6 nM and 33 nM, respectively.
As for `CCOc1cc(-c2cc(NCCn3c(C#N)cc4c(OC)ccc(F)c43)ncn2)sc1C(=O)NCCO` [Example 1026, 5-{6-[2-(2-Cyano-7-fluoro-4-methoxy-indol-1-yl)-ethylamino]-pyrimidin-4-yl}-3-ethoxy-thiophene-2-carboxylic acid (2-hydroxy-ethyl)-amide], the IC50 in assay [1] is 1 nM; in assay [2], 21 nM.
For the compound `CCOc1cc(-c2cc(NCCn3c(C#N)cc4c(OC)ccc(F)c43)ncn2)sc1C(=O)NC(C)C` [Example 1027, 5-{6-[2-(2-Cyano-7-fluoro-4-methoxy-indol-1-yl)-ethylamino]-pyrimidin-4-yl}-3-ethoxy-thiophene-2-carboxylic acid isopropylamide], the IC50 was found to be 3 nM in assay [1] and 39 nM in assay [2].
As for `CCOc1cc(-c2cc(NCCn3c(C#N)cc4c(OC)ccc(F)c43)ncn2)sc1C(=O)NCCOC` [Example 1028, 5-{6-[2-(2-Cyano-7-fluoro-4-methoxy-indol-1-yl)-ethylamino]-pyrimidin-4-yl}-3-ethoxy-thiophene-2-carboxylic acid (2-methoxy-ethyl)-amide], the values for the IC50 in assay [1] and in assay [2] were 2 nM and 9 nM, respectively.
With `CCOc1cc(-c2cc(NCCn3c(C#N)cc4c(OC)ccc(F)c43)ncn2)sc1C(=O)NS(N)(=O)=O` [Example 1029, 5-(6-((2-(2-Cyano-7-fluoro-4-methoxy-1H-indol-1-yl)ethyl)amino)pyrimidin-4-yl)-3-ethoxy-N-sulfamoylthiophene-2-carboxamide], the IC50 in assay [1] was found to be 6 nM; in assay [2], 4 nM.
Take `CCOc1cc(-c2cc(NCCn3c(C#N)cc4c(OC)ccc(F)c43)ncn2)sc1C(=O)NO` [Example 1030, 5-{6-[2-(2-Cyano-7-fluoro-4-methoxy-indol-1-yl)-ethylamino]-pyrimidin-4-yl}-3-ethoxy-thiophene-2-carboxylic acid hydroxyamide]: the results for the IC50 in assay [1] and in assay [2] were 3 nM and 15 nM, respectively.
In the case of `CCOc1cc(-c2cc(NCCn3c(C)cc4c(OC)ccc(F)c43)ncn2)sc1CO` [Example 1031, (3-Ethoxy-5-{6-[2-(7-fluoro-4-methoxy-2-methyl-indol-1-yl)-ethylamino]-pyrimidin-4-yl}-thiophen-2-yl)methanol], the IC50 was found to be 19 nM in assay [1] and 3 nM in assay [2].
For `COc1ccc(F)c2c1cc(C)n2CCNc1cc(-c2nc(OC(C)C)c(C(=O)O)s2)ncn1` [Example 1032, 2-{6-[2-(7-Fluoro-4-methoxy-2-methyl-indol-1-yl)-ethylamino]-pyrimidin-4-yl}-4-isopropoxy-thiazole-5-carboxylic acid], the IC50 in assay [1] amounted to 14 nM; in assay [2], 10 nM.
For `COc1nc(-c2cc(NCCn3c(C)cc4c(OC)ccc(F)c43)ncn2)sc1C(=O)O` [Example 1033, 2-{6-[2-(7-Fluoro-4-methoxy-2-methyl-indol-1-yl)-ethylamino]-pyrimidin-4-yl}-4-methoxy-thiazole-5-carboxylic acid], in that order: 37 nM and 7 nM.
Turning to `CCOc1nc(-c2cc(NCCn3c(C)cc4c(OC)ccc(F)c43)ncn2)sc1C(=O)O` [Example 1034, 4-Ethoxy-2-{6-[2-(7-fluoro-4-methoxy-2-methyl-indol-1-yl)-ethylamino]-pyrimidin-4-yl}-thiazole-5-carboxylic acid], the IC50 turned out to be 17 nM in assay [1] and 5 nM in assay [2].
For `CCCOc1nc(-c2cc(NCCn3c(C)cc4c(OC)ccc(F)c43)ncn2)sc1C(=O)O` [Example 1035, 2-{6-[2-(7-Fluoro-4-methoxy-2-methyl-indol-1-yl)-ethylamino]-pyrimidin-4-yl}-4-propoxy-thiazole-5-carboxylic acid], in that order: 29 nM and 2 nM.
As to `COc1ccc(F)c2c1cc(C)n2CCNc1cc(-c2nc(CC(C)C)c(C(=O)O)s2)ncn1` [Example 1036, 2-{6-[2-(7-Fluoro-4-methoxy-2-methyl-indol-1-yl)-ethylamino]-pyrimidin-4-yl}-4-isobutyl-thiazole-5-carboxylic acid], the IC50 in assay [1] was found to be 20 nM; in assay [2], 24 nM.
